Laboratory results: patent US20260224541A1, “PHARMACEUTICAL FORMULATION, PREPARATION METHOD THEREFOR, AND TABLET COMPOSITION” (JEIL PHARMACEUTICAL CO., LTD., priority 2023, published 2026)

Assay: oral administration: blood concentration of the citrate salt vs free base Compound 1
Format: in vivo
Conditions: administered orally

AUC compared to the free base Compound 1: at least 5 fold
Cmax compared to the free base Compound 1: at least 11 fold
time to reach peak blood concentrations compared to the free base Compound 1: faster
SMILES: Cc1cccc(C)c1CNc1cc(C(=O)N2CCC2)cn2c(C)c(C)nc12.O=C(O)CC(O)(CC(=O)O)C(=O)O [citrate salt of Compound 1, azetidin-1-yl{8-[(2,6-dimethylbenzyl)amino]-2,3-dimethylimidazo[1,2-a]pyridin-6-yl}methanone citrate salt]
